Measured values taken from the supplement of paper PMC13380429.

Legend:
Conditions in all cases: 72 h
[1] = test system: HepG2; assay: cell viability relative to DMSO; higher = less toxic
[2] = test system: U2OS; assay: as above
[3] = test system: Vero E6; assay: as above
[4] = test system: Calu-3; assay: as above
[5] = test system: Caco-2; assay: as above
[6] = test system: HepG2; assay: drug sensitivity score (DSS) for viability; higher = more toxic; extreme values may be limits of the assay
[7] = test system: U2OS; assay: as above
[8] = test system: Vero E6; assay: as above
[9] = test system: Calu-3; assay: as above
[10] = test system: Caco-2; assay: as above
[11] = test system: HepG2; assay: relative viability EC50 (midpoint between 100% and the lowest measured viability); higher = less toxic
[12] = test system: U2OS; assay: as above
[13] = test system: Vero E6; assay: as above
[14] = test system: Calu-3; assay: as above
[15] = test system: Caco-2; assay: as above

CC(C)(C)NCC(O)COc1cccc2c1CCC(=O)N2 (stereo not given) [carteolol]
cell viability ([1]; 1 nM): 101%
cell viability ([1]; 10 nM): 87.8%
cell viability ([1]; 100 nM): 100%
cell viability ([1]; 1000 nM): 101%
cell viability ([1]; 10000 nM): 105%
cell viability ([2]; 1 nM): 98.5%
cell viability ([2]; 10 nM): 101%
cell viability ([2]; 100 nM): 95.9%
cell viability ([2]; 1000 nM): 97.2%
cell viability ([2]; 10000 nM): 93.9%
cell viability ([3]; 1 nM): 96.3%
cell viability ([3]; 10 nM): 95.9%
cell viability ([3]; 100 nM): 98.4%
cell viability ([3]; 1000 nM): 99%
cell viability ([3]; 10000 nM): 98.3%
cell viability ([4]; 1 nM): 94.8%
cell viability ([4]; 10 nM): 109%
cell viability ([4]; 100 nM): 104%
cell viability ([4]; 1000 nM): 92.9%
cell viability ([4]; 10000 nM): 104%
cell viability ([5]; 1 nM): 100%
cell viability ([5]; 10 nM): 96.1%
cell viability ([5]; 100 nM): 95.8%
cell viability ([5]; 1000 nM): 98.1%
cell viability ([5]; 10000 nM): 95.7%
drug sensitivity score [6]: 0
drug sensitivity score [7]: 0
drug sensitivity score [8]: 0
drug sensitivity score [9]: 0
drug sensitivity score [10]: 0
relative viability EC50 [11]: > 10 µM
relative viability EC50 [12]: > 10 µM
relative viability EC50 [13]: > 10 µM
relative viability EC50 [14]: > 10 µM
relative viability EC50 [15]: > 10 µM

NCC1CC(=O)N(Cc2ccccc2)C1 (stereo not given) [nebracetam]
cell viability ([1]; 1 nM): 109%
cell viability ([1]; 10 nM): 108%
cell viability ([1]; 100 nM): 92.8%
cell viability ([1]; 1000 nM): 96.6%
cell viability ([1]; 10000 nM): 98.5%
cell viability ([2]; 1 nM): 97.4%
cell viability ([2]; 10 nM): 104%
cell viability ([2]; 100 nM): 95.7%
cell viability ([2]; 1000 nM): 100%
cell viability ([2]; 10000 nM): 104%
cell viability ([3]; 1 nM): 94.5%
cell viability ([3]; 10 nM): 93.6%
cell viability ([3]; 100 nM): 97.8%
cell viability ([3]; 1000 nM): 91.4%
cell viability ([3]; 10000 nM): 108%
cell viability ([4]; 1 nM): 99.7%
cell viability ([4]; 10 nM): 96.3%
cell viability ([4]; 100 nM): 93.1%
cell viability ([4]; 1000 nM): 94.4%
cell viability ([4]; 10000 nM): 107%
cell viability ([5]; 1 nM): 87%
cell viability ([5]; 10 nM): 91.8%
cell viability ([5]; 100 nM): 84.4%
cell viability ([5]; 1000 nM): 97.8%
cell viability ([5]; 10000 nM): 99.7%
drug sensitivity score [6]: 0
drug sensitivity score [7]: 0
drug sensitivity score [8]: 0
drug sensitivity score [9]: 0
drug sensitivity score [10]: 0
relative viability EC50 [11]: > 10 µM
relative viability EC50 [12]: > 10 µM
relative viability EC50 [13]: > 10 µM
relative viability EC50 [14]: > 10 µM
relative viability EC50 [15]: > 10 µM

CN(C)CCc1ccc(O)cc1 [hordenine]
cell viability ([1]; 1 nM): 104%
cell viability ([1]; 10 nM): 110%
cell viability ([1]; 100 nM): 103%
cell viability ([1]; 1000 nM): 87.1%
cell viability ([1]; 10000 nM): 100%
cell viability ([2]; 1 nM): 94.6%
cell viability ([2]; 10 nM): 96.1%
cell viability ([2]; 100 nM): 92.7%
cell viability ([2]; 1000 nM): 102%
cell viability ([2]; 10000 nM): 97.8%
cell viability ([3]; 1 nM): 106%
cell viability ([3]; 10 nM): 103%
cell viability ([3]; 100 nM): 101%
cell viability ([3]; 1000 nM): 99.1%
cell viability ([3]; 10000 nM): 103%
cell viability ([4]; 1 nM): 91.9%
cell viability ([4]; 10 nM): 93.6%
cell viability ([4]; 100 nM): 89.7%
cell viability ([4]; 1000 nM): 101%
cell viability ([4]; 10000 nM): 101%
cell viability ([5]; 1 nM): 96.2%
cell viability ([5]; 10 nM): 102%
cell viability ([5]; 100 nM): 100%
cell viability ([5]; 1000 nM): 102%
cell viability ([5]; 10000 nM): 95.8%
drug sensitivity score [6]: 0
drug sensitivity score [7]: 0
drug sensitivity score [8]: 0
drug sensitivity score [9]: 0
drug sensitivity score [10]: 0
relative viability EC50 [11]: > 10 µM
relative viability EC50 [12]: > 10 µM
relative viability EC50 [13]: > 10 µM
relative viability EC50 [14]: > 10 µM
relative viability EC50 [15]: > 10 µM

N#CCCCSC(=N)N [kevetrin]
cell viability ([1]; 1 nM): 107%
cell viability ([1]; 10 nM): 97.4%
cell viability ([1]; 100 nM): 101%
cell viability ([1]; 1000 nM): 93.6%
cell viability ([1]; 10000 nM): 101%
cell viability ([2]; 1 nM): 97.9%
cell viability ([2]; 10 nM): 102%
cell viability ([2]; 100 nM): 96.3%
cell viability ([2]; 1000 nM): 97.5%
cell viability ([2]; 10000 nM): 96.3%
cell viability ([3]; 1 nM): 96.6%
cell viability ([3]; 10 nM): 98.4%
cell viability ([3]; 100 nM): 92.6%
cell viability ([3]; 1000 nM): 101%
cell viability ([3]; 10000 nM): 98.9%
cell viability ([4]; 1 nM): 108%
cell viability ([4]; 10 nM): 90.9%
cell viability ([4]; 100 nM): 92.8%
cell viability ([4]; 1000 nM): 105%
cell viability ([4]; 10000 nM): 93.1%
cell viability ([5]; 1 nM): 92%
cell viability ([5]; 10 nM): 99.3%
cell viability ([5]; 100 nM): 96.6%
cell viability ([5]; 1000 nM): 99.8%
cell viability ([5]; 10000 nM): 99.7%
drug sensitivity score [6]: 0
drug sensitivity score [7]: 0
drug sensitivity score [8]: 0
drug sensitivity score [9]: 0
drug sensitivity score [10]: 0
relative viability EC50 [11]: > 10 µM
relative viability EC50 [12]: > 10 µM
relative viability EC50 [13]: > 10 µM
relative viability EC50 [14]: > 10 µM
relative viability EC50 [15]: > 10 µM

COc1ccc(Nc2nccc(NCCO)n2)cc1 [cardiogenol-C]
cell viability ([1]; 1 nM): 93.4%
cell viability ([1]; 10 nM): 93.1%
cell viability ([1]; 100 nM): 93.4%
cell viability ([1]; 1000 nM): 108%
cell viability ([1]; 10000 nM): 102%
cell viability ([2]; 1 nM): 97.7%
cell viability ([2]; 10 nM): 97.2%
cell viability ([2]; 100 nM): 102%
cell viability ([2]; 1000 nM): 96.1%
cell viability ([2]; 10000 nM): 98.2%
cell viability ([3]; 1 nM): 94.4%
cell viability ([3]; 10 nM): 105%
cell viability ([3]; 100 nM): 94.8%
cell viability ([3]; 1000 nM): 104%
cell viability ([3]; 10000 nM): 100%
cell viability ([4]; 1 nM): 94.4%
cell viability ([4]; 10 nM): 92.7%
cell viability ([4]; 100 nM): 92.5%
cell viability ([4]; 1000 nM): 92.5%
cell viability ([4]; 10000 nM): 102%
cell viability ([5]; 1 nM): 105%
cell viability ([5]; 10 nM): 87.7%
cell viability ([5]; 100 nM): 101%
cell viability ([5]; 1000 nM): 95.8%
cell viability ([5]; 10000 nM): 103%
drug sensitivity score [6]: 0
drug sensitivity score [7]: 0
drug sensitivity score [8]: 0
drug sensitivity score [9]: 0
drug sensitivity score [10]: 0
relative viability EC50 [11]: > 10 µM
relative viability EC50 [12]: > 10 µM
relative viability EC50 [13]: > 10 µM
relative viability EC50 [14]: > 10 µM
relative viability EC50 [15]: > 10 µM

CC(C)(O)C(=O)Nc1ccc([N+](=O)[O-])c(C(F)(F)F)c1 [2-hydroxyflutamide]
cell viability ([1]; 1 nM): 97.6%
cell viability ([1]; 10 nM): 99.3%
cell viability ([1]; 100 nM): 92.6%
cell viability ([1]; 1000 nM): 98%
cell viability ([1]; 10000 nM): 98.1%
cell viability ([2]; 1 nM): 99%
cell viability ([2]; 10 nM): 105%
cell viability ([2]; 100 nM): 103%
cell viability ([2]; 1000 nM): 97.1%
cell viability ([2]; 10000 nM): 94.6%
cell viability ([3]; 1 nM): 100%
cell viability ([3]; 10 nM): 102%
cell viability ([3]; 100 nM): 102%
cell viability ([3]; 1000 nM): 93.9%
cell viability ([3]; 10000 nM): 97%
cell viability ([4]; 1 nM): 100%
cell viability ([4]; 10 nM): 97.2%
cell viability ([4]; 100 nM): 97.8%
cell viability ([4]; 1000 nM): 101%
cell viability ([4]; 10000 nM): 107%
cell viability ([5]; 1 nM): 97.3%
cell viability ([5]; 10 nM): 90.4%
cell viability ([5]; 100 nM): 90%
cell viability ([5]; 1000 nM): 96.5%
cell viability ([5]; 10000 nM): 87.9%
drug sensitivity score [6]: 0
drug sensitivity score [7]: 0
drug sensitivity score [8]: 0
drug sensitivity score [9]: 0
drug sensitivity score [10]: 0
relative viability EC50 [11]: > 10 µM
relative viability EC50 [12]: > 10 µM
relative viability EC50 [13]: > 10 µM
relative viability EC50 [14]: > 10 µM
relative viability EC50 [15]: > 10 µM

COC(=O)/C=C/C(=O)N[C@@H]1CC[C@@]2(O)[C@H]3Cc4ccc(O)c5c4[C@@]2(CCN3CC2CC2)[C@H]1O5 [beta-funaltrexamine]
cell viability ([1]; 1 nM): 93.6%
cell viability ([1]; 10 nM): 92.8%
cell viability ([1]; 100 nM): 92.4%
cell viability ([1]; 1000 nM): 90.6%
cell viability ([1]; 10000 nM): 89.2%
cell viability ([2]; 1 nM): 104%
cell viability ([2]; 10 nM): 98.7%
cell viability ([2]; 100 nM): 101%
cell viability ([2]; 1000 nM): 96.3%
cell viability ([2]; 10000 nM): 89.9%
cell viability ([3]; 1 nM): 92.4%
cell viability ([3]; 10 nM): 96.1%
cell viability ([3]; 100 nM): 93.1%
cell viability ([3]; 1000 nM): 105%
cell viability ([3]; 10000 nM): 101%
cell viability ([4]; 1 nM): 95.2%
cell viability ([4]; 10 nM): 99.5%
cell viability ([4]; 100 nM): 101%
cell viability ([4]; 1000 nM): 102%
cell viability ([4]; 10000 nM): 99.6%
cell viability ([5]; 1 nM): 104%
cell viability ([5]; 10 nM): 91.5%
cell viability ([5]; 100 nM): 90%
cell viability ([5]; 1000 nM): 94.8%
cell viability ([5]; 10000 nM): 82.4%
drug sensitivity score [6]: 0
drug sensitivity score [7]: 0
drug sensitivity score [8]: 0
drug sensitivity score [9]: 0
drug sensitivity score [10]: 0.7
relative viability EC50 [11]: > 10 µM
relative viability EC50 [12]: > 10 µM
relative viability EC50 [13]: > 10 µM
relative viability EC50 [14]: > 10 µM
relative viability EC50 [15]: > 10 µM
